Reference: patent US4083947A, “Organ visualization” (The Radiochemical Centre Limited, priority 1975, dated 1978)

How the values were obtained:
[1] = Adrenal scanning/visualization in patients, comparison of 75Se compound with 19-iodocholesterol-131I; format: in vivo, humans
Procedure: Two patients with Cushing Syndrome were injected intravenously with 500μCi of 6β-methylselenomethyl-19-norcholest-5(10)-en-3β-ol-^75 Se formulated in normal saline stabilized with polysorbate. Repeated gamma camera scans and whole body-, urine- and blood measurements were made during a period of two weeks post injection. In one patient a maximum uptake of 17μCi in the left adrenal region was measured, the removed adrenal cortex adenoma, weight 66 g, containing 15μCi of ^75 Se.
Furthermore, the ^75 Se compound allowed scans to be taken at an earlier point of time after injection than was the case with 19-iodocholesterol-^131 I (2-3 days in contrast to 6-10 days p.i.).

[2] = cited from earlier work
[3] = cited from earlier work; remark: listed apart in the source
[4] = cited from earlier work; remark: listed apart in the source
[5] = compared with 19-iodocholesterol-131I; cited from earlier work

Row | Structure (SMILES) | time after injection at which scans could be taken ([1]; p.i.) | dose giving equally good adrenal scans ([1]; per kg body weight, adrenal cortex adenomas or hyperplasia) | concentration in adrenal glands of dogs [2] | concentration in rat adrenal tissue [3] | concentration in / uptake into human adrenal glands [4] | effectiveness as adrenal scanning agent [5]
1 | CC(C)CCC[C@@H](C)[C@H]1CC[C@H]2[C@@H]3CC=C4C[C@@H](O)CC[C@]4(C[131I])[C@H]3CC[C@]12C [19-iodocholesterol-^131 I] | 6 to 10 days | 10-20 μCi/kg | concentrate in the adrenal glands | concentrate in the adrenal glands | concentrate in the adrenal glands | 
2 | CC(C)CCC[C@@H](C)[C@H]1CC[C@H]2[C@@H]3C[C@@H](C[131I])C4=C(CC[C@H](O)C4)[C@H]3CC[C@]12C [^131 I-iodinated rearranged product, 6β-iodomethyl-19-norcholest-5(10)-en-3β-ol] |  |  |  |  |  | far more effective adrenal scanning agent than 19-iodocholesterol-^131 I
